Assay results: patent US20250041377A1, “PHARMACEUTICAL USE” (ENLITISA (SHANGHAI) PHARMACEUTICAL CO., LTD., priority 2018, published 2025)
Where a SMILES comes first, the peptide text is derived from it. Where no end group is shown, it is not given here. [ ]: non-standard residue; d: D form. Dopa = N[C@@H](Cc1ccc(O)c(O)c1)C(=O)O; Hyp = O=C(O)[CH]1C[CH](O)CN1; 3Hyp = 3-hydroxyproline

How the values were obtained:
[1] = tested on: carrageenan-induced acute inflammation in subcutaneous air pouch; assay: Air pouch model, histological scores of skin biopsies; type: in vivo, C57BL/6 mice; set-up: Fibroplastic proliferation score: scale not given here; settings: for Fibroplastic proliferation score / Inflammation score / Edema Score: 0.6 mg/mL, 300 μg/mouse injected into air pouch 1 hour before carrageenan; for Inflammation score: HE slices scored 1-3 points; for Edema Score: scored 1-3 points; for Sum: sum of scores, 300 μg/mouse into air pouch
Method: Healthy adult male C57BL/6 mice weighing between 20 and 30 g were supplied by Nanjing Biomedicial Research Institute of Nanjing University (NBRI). Prior to any experiments being conducted, mice were housed under standardized conditions (at a constant temperature of 22±2° C., with alternating 12 hour periods of light and darkness), and were fed on a standard mouse diet with water, for about a week.
General anesthesia was induced using intraperitoneal 3% chloral hydrate (Sinopharm Chemical Reagent Co., Ltd., Shanghai, China; 1 mL/10 g of body weight). The hair of the entire dorsum was shaved and depilated 1 day before sterile air injection.
Air pouches were produced by subcutaneous injection of sterile air (5 mL) into the intrascapular area of the mice. After three days, another injection of air (3 mL) was performed to maintain the pouches. In order to induce acute inflammation, three days after this final injection, animals received an injection of sterile carrageenan solution (CP Kelco, Taixing, Jiangsu Province, China. 1%, 0.5 mL; produced by adding 0.1 g of carrageenan powder into a beaker containing 10 mL of 0.9% saline solution and stirring). Mice were pre-treated with test samples or vehicle 1 hour before and 23 hours after the carrageenan injection into the subcutaneous air pouch. Animals were sacrificed 24 hours after the carrageenan injection.
Skin biopsies were taken from the air pouches. A part of the biopsy was fixed in formalin (produced by adding ultra pure water to 50 mL of a 40% formaldehyde solution (Nanchang Rain Dew Experimental Equipment Co., Ltd., Nanchang, Hubei Province, China) up to a total volume of 500 mL) and analyzed by histological embedding in paraffin wax, sectioning and staining.
After conducting some preliminary experiments to validate the model, an experiment was conducted in which mice were treated by administering test samples or vehicle in accordance with Table 1 below.
All the substances listed in Table 1 were administrated topically by directly injecting into the air pouches.
The histological specimens were analyzed and an inflammation score, an activity score (i.e. the number and density of neutrophils shown in pathological slides, indicating the degree of inflammation and, in the case of open wound and infective diseases, the degree of infection), an edema score and a fibroblast proliferation score were estimated as follows.
The HE stained slices were observed under an optical microscope and were scored (1, 2 or 3 points) according to the perceived inflammation level (in cases showing only a small amount of inflammatory cells scattered in the area-1 point (mild); in cases where many inflammatory cells were observed-2 points (moderate); and, in cases with diffuse infiltration-3 points (severe). A similar scoring system was employed for edema levels (3 points for most severe and 1 point for mild) after overall observation. Scores for neutrophils employed the same methodology as that employed for inflammatory cells.

[2] = tested on: full thickness skin wound on the back; assay: Acute wound model, remaining wound area; type: in vivo, C57BL/6 mice; settings: for ratio of remaining wound area of initial wound: ± SD
Method: 6-8 weeks old male C57BL/6 mice were supplied by Changzhou Cvens Experimental Animal Co. Ltd (Changzhou, Jiangsu Province, China). Prior to any experiments being conducted, mice were housed under standardized conditions (at a constant temperature of 22±2° C., with alternating 12 hour periods of light and darkness), and were fed on a standard mouse diet with water, for about a week.
General anesthesia was induced using intraperitoneal 3% chloral hydrate (1 mL/10 g of body weight). The hair on the back was shaved by a baby hair shaver and depilated with cream. The skin area was wiped and sterilized with 75% alcohol twice.
An EMS skin biopsy punch (Electron Microscopy Sciences, P.O. Box 550, 1560 Industry Road, Hatfield, PA, USA) with a 18 mm diameter was used to make a round wound on the back. The full thickness of skin was removed and the depth of the wound reached the fascia. Wounds were left open without a suture.
The model group was given same amount of normal saline. There were 8 mice in each group.
Recombinant Human Epidermal Growth Factor (rhEGF, Shanghai Haohai Biological Technology Co. Ltd, 23/F, Shanghai, China) was purchased and prepared according to the manufacturer's instructions. The lyophilized rhEGF powder (100000 IU/vial) was dissolved in 20 mL of normal saline to make a solution with a concentration of 5000 IU/mL. The working dose of rhEGF for this experiment was 1285 IU/wound.
For this experiment, Compound A was also obtained from GL Biochem (Shanghai) Ltd. The peptide powders were stored at −20° C. and dissolved in saline at concentrations of 61.8 μg/mL (Compound A), and 61 μg/mL (Compound B). 50 μL of the solutions were applied onto the wound surfaces.
Wounds were dressed with gauze and transparent dresser after drug administration. Photographs were taken for each wound every other day from Day 0. Photos were scanned into a computer, and wound areas calculated using ImageJ image analysis software (National Institutes of Health, […]).
The unhealed wound area was expressed as a percentage of the original wound area: […]
where A0 and At refer to the initial area at Day 0 and the wound area at the date of measurement (time t), respectively.

[3] = Day 0, topical 50 μL/wound once daily, rhEGF 1285 IU/mouse, Compound A 3.09 μg/mouse, Compound B 3.05 μg/mouse

| Compound | Fibroplastic proliferation score [1] | Inflammation score [1] | Edema Score [1] | Sum [1] | ratio of remaining wound area of initial wound [2, 3] | ratio of remaining wound area of initial wound ([2]; Day 1, topical once daily) | ratio of remaining wound area of initial wound ([2]; Day 2, topical once daily) | ratio of remaining wound area of initial wound ([2]; Day 3, topical once daily) | ratio of remaining wound area of initial wound ([2]; Day 4, topical once daily) | improvement rate ([2]; Day 4, versus model group) | ratio of remaining wound area of initial wound ([2]; Day 5, topical once daily) | ratio of remaining wound area of initial wound ([2]; Day 6, topical once daily) |
| --- | --- | --- | --- | --- | --- | --- | --- | --- | --- | --- | --- | --- |
| CC(N)C(=O)NC(CCCCN)C(=O)N1CCCC1C(=O)NC(CO)C(=O)NC(Cc1ccc(O)cc1)C(=O)N1CC(O)CC1C(=O)N1CC(O)CC1C(=O)NC(C(=O)NC(Cc1ccc(O)cc1)C(=O)NC(CCCCN)C(=O)O)C(C)O (stereo not drawn) [Compound B, Ala-Lys-Pro-Ser-Tyr-Hyp-Hyp-Thr-Tyr-Lys] (H-AKPSY[Hyp][Hyp]TYK-OH; configuration not given here) | 1.00 | 1.6 | 1.2 | 2.8 | 79.4 ± 3.4% | 100 ± 4.5% | 96.7 ± 5.6% | 76.7 ± 4.8% | 66.5 ± 1.4% | about 10% | 55.8 ± 1.3% | 51.9 ± 1.7% |
| Ala-Lys-Pro-Ser-Tyr-Hyp-Hyp-Thr-DOPA-Lys (AKPSY[3Hyp][Hyp]T[Dopa]K; listed as Mytilus edulis) [Compound A] | 0.2 | 1.6 | 1.8 | 3.4 | 77.2 ± 4.1% | 100 ± 17.1% | 81.2 ± 11.2% | 74.2 ± 0.9% | 60.9 ± 7.3% |  | 50.5 ± 11.3% | 45.8 ± 4.7% |
